Reference: US20260285850A1, “SUBSTITUTED OXAZOLIDINONES AND IMIDAZOLINONES AS HERBICIDES” (FMC CORPORATION, priority 2023, published 2026)

Tests used:
Assay type in all cases: in vivo
rice (Oryza sativa) = experiment: Test B flooded paddy test, visual plant response rating 0-100; conditions: 250 g ai/ha, Flood, applied to paddy water, evaluated after 13 days
Outline: (§1)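 Visual scores versus untreated controls were recorded 13 days after treatment of greenhouse-held plants. At the 2-leaf stage, pots were flooded 3 cm above the soil surface and compounds added straight to the water.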

[1] = tested on: barnyardgrass (Echinochloa crusgalli); experiment: as above; conditions: 250 g ai/ha, Flood, applied to paddy water, evaluated after 13 days
Outline: as §1

[2] = tested on: sedge, umbrella (small-flower umbrella sedge, Cyperus difformis); experiment: as above; conditions: 250 g ai/ha, Flood, applied to paddy water, evaluated after 13 days
Outline: as §1

[3] = tested on: ducksalad (Heteranthera limosa); experiment: as above; conditions: 250 g ai/ha, Flood, applied to paddy water, evaluated after 13 days
Outline: as §1

[4] = tested on: horseweed (Erigeron canadensis); experiment: Test A postemergence application, visual injury rating 0-100; conditions: 10 days
Outline: (§2)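 Loam-sand pots got test material in surfactant-containing solvent, either as a directed soil spray before emergence or on plants at the one- to two-leaf stage. Visual injury (0-100) was read after ten greenhouse days.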

[5] = tested on: oat, wild (wild oat, Avena fatua); experiment: as above; conditions: 10 days
Outline: as §2

corn (Zea mays) [6] = experiment: as above; conditions: 10 days
Outline: as §2

[7] = tested on: ryegrass, Italian (italian ryegrass, Lolium multiflorum); experiment: as above; conditions: 10 days
Outline: as §2

[8] = tested on: ragweed (common ragweed, Ambrosia artemisiifolia); experiment: as above; conditions: 10 days
Outline: as §2

[9] = tested on: galium (catchweed bedstraw, Galium aparine); experiment: as above; conditions: 10 days
Outline: as §2

[10] = tested on: barnyardgrass (Echinochloa crus-galli); experiment: as above; conditions: 10 days
Outline: as §2

soybean (Glycine max) [11] = experiment: as above; conditions: 10 days
Outline: as §2

[12] = tested on: wheat (Triticum aestivum); experiment: as above; conditions: 10 days
Outline: as §2

[13] = tested on: green foxtail (Setaria viridis); experiment: as above; conditions: 10 days
Outline: as §2

[14] = tested on: palmer (palmer amaranth, palmer pigweed, Amaranthus palmeri); experiment: as above; conditions: 10 days
Outline: as §2

kochia (Bassia scoparia) [15] = experiment: as above; conditions: 10 days
Outline: as §2

[16] = tested on: blackgrass (Alopecurus myosuroides); experiment: as above; conditions: 10 days
Outline: as §2

[17] = tested on: oat, wild (wild oat, Avena fatua); experiment: Test A preemergence soil spray, visual injury rating 0-100; conditions: 10 days, 0 = no effect, 100 = complete control
Outline: as §2

corn (Zea mays) [18] = experiment: as above; conditions: 10 days, 0 = no effect, 100 = complete control
Outline: as §2

[19] = tested on: ragweed (common ragweed, Ambrosia artemisiifolia); experiment: as above; conditions: 10 days, 0 = no effect, 100 = complete control
Outline: as §2

[20] = tested on: barnyardgrass (Echinochloa crus-galli); experiment: as above; conditions: 10 days, 0 = no effect, 100 = complete control
Outline: as §2

soybean (Glycine max) [21] = experiment: as above; conditions: 10 days, 0 = no effect, 100 = complete control
Outline: as §2

[22] = tested on: wheat (Triticum aestivum); experiment: as above; conditions: 10 days, 0 = no effect, 100 = complete control
Outline: as §2

[23] = tested on: green foxtail (Setaria viridis); experiment: as above; conditions: 10 days, 0 = no effect, 100 = complete control
Outline: as §2

[24] = tested on: palmer (palmer amaranth, palmer pigweed, Amaranthus palmeri); experiment: as above; conditions: 10 days, 0 = no effect, 100 = complete control
Outline: as §2

kochia (Bassia scoparia) [25] = experiment: as above; conditions: 10 days, 0 = no effect, 100 = complete control
Outline: as §2

[26] = tested on: blackgrass (Alopecurus myosuroides); experiment: as above; conditions: 10 days, 0 = no effect, 100 = complete control
Outline: as §2

[27] = 31 g ai/ha, postemergence, 0 = no effect, 100 = complete control
[28] = Postemergence, 125 g ai/ha, 0 is no effect, 100 is complete control

Which results are given for `CC1(C(=O)NC2CCC(C(=O)O)C2)CN(c2cc(F)cc(Cl)c2)C(=O)O1` (centres unmarked) [Compound 7]?
Plant response rating, Rice (0 to 100 scale, 0 is no effect and 100 is complete control) (rice (Oryza sativa)): 25; Plant response rating, Barnyardgrass (0 to 100 scale, 0 is no effect and 100 is complete control) [1]: 60; Plant response rating, Sedge, Umbrella (0 to 100 scale, 0 is no effect and 100 is complete control) [2]: 90; Plant response rating, Ducksalad (0 to 100 scale, 0 is no effect and 100 is complete control) [3]: 60; Horseweed plant response rating (0-100) [4, 27]: 0; Horseweed plant response rating (0 to 100 scale) [4, 28]: 40; Oat, Wild plant response rating (0-100) [5, 27]: 90; Oat, Wild plant response rating (0 to 100 scale) [5, 28]: 100; Corn plant response rating (0-100) (corn (Zea mays) [6]; [27]): 90; Corn plant response rating (0 to 100 scale) (corn (Zea mays) [6]; [28]): 100; Ryegrass, Italian plant response rating (0-100) [7, 27]: 80; Ryegrass, Italian plant response rating (0 to 100 scale) [7, 28]: 90; Ragweed plant response rating (0-100) [8, 27]: 0; Ragweed plant response rating (0 to 100 scale) [8, 28]: 20; Galium plant response rating (0-100) [9, 27]: 80; Galium plant response rating (0 to 100 scale) [9, 28]: 80; Barnyardgrass plant response rating (0-100) [10, 27]: 100; Barnyardgrass plant response rating (0 to 100 scale) [10, 28]: 100; Soybean plant response rating (0-100) (soybean (Glycine max) [11]; [27]): 50; Soybean plant response rating (0 to 100 scale) (soybean (Glycine max) [11]; [28]): 60; Wheat plant response rating (0-100) [12, 27]: 90; Wheat plant response rating (0 to 100 scale) [12, 28]: 90; Foxtail, Green plant response rating (0-100) [13, 27]: 50; Foxtail, Green plant response rating (0 to 100 scale) [13, 28]: 90; Amaranth, Palmer plant response rating (0-100) [14, 27]: 50; Amaranth, Palmer / Pigweed, Palmer plant response rating (0 to 100 scale) [14, 28]: 80; Kochia plant response rating (0-100) (kochia (Bassia scoparia) [15]; [27]): 70; Kochia plant response rating (0 to 100 scale) (kochia (Bassia scoparia) [15]; [28]): 80; Blackgrass plant response rating (0-100) [16, 27]: 60; Blackgrass plant response rating (0 to 100 scale) [16, 28]: 70; Oat, Wild plant response rating (0-100) ([17]; 31 g ai/ha): 20; Oat, Wild plant response rating (0 to 100 scale) ([17]; 125 g ai/ha): 70; Corn plant response rating (0-100) (corn (Zea mays) [18]; 31 g ai/ha): 0; Corn plant response rating (0 to 100 scale) (corn (Zea mays) [18]; 125 g ai/ha): 80; Ragweed plant response rating (0-100) ([19]; 31 g ai/ha): 0; Ragweed plant response rating (0 to 100 scale) ([19]; 125 g ai/ha): 0; Barnyardgrass plant response rating (0-100) ([20]; 31 g ai/ha): 0; Barnyardgrass plant response rating (0 to 100 scale) ([20]; 125 g ai/ha): 90; Soybean plant response rating (0-100) (soybean (Glycine max) [21]; 31 g ai/ha): 20; Soybean plant response rating (0 to 100 scale) (soybean (Glycine max) [21]; 125 g ai/ha): 60; Wheat plant response rating (0-100) ([22]; 31 g ai/ha): 90; Wheat plant response rating (0 to 100 scale) ([22]; 125 g ai/ha): 90; Foxtail, Green plant response rating (0-100) ([23]; 31 g ai/ha): 20; Foxtail, Green plant response rating (0 to 100 scale) ([23]; 125 g ai/ha): 100; Amaranth, Palmer plant response rating (0-100) ([24]; 31 g ai/ha): 0; Amaranth, Palmer plant response rating (0 to 100 scale) ([24]; 125 g ai/ha): 90; Kochia plant response rating (0-100) (kochia (Bassia scoparia) [25]; 31 g ai/ha): 0; Kochia plant response rating (0 to 100 scale) (kochia (Bassia scoparia) [25]; 125 g ai/ha): 80; Blackgrass plant response rating (0-100) ([26]; 31 g ai/ha): 20; Blackgrass plant response rating (0 to 100 scale) ([26]; 125 g ai/ha): 70
